# Assay results taken from patent publication US20240024488A1, “COMPOUNDS AND USES THEREOF” (Foghorn Therapeutics Inc., priority 2020, published 2024).
# Experiments:
# [1] = target: T1, HiBit-BRG1 fusion protein (Homo sapiens, UniProt P51532); assay: HiBiT-BRG1 cell-based degradation assay (Nano-Glo HiBiT Lytic Detection, 24 h); conditions: HeLa cell line expressing HiBit-BRG1 and LgBit; for Dmax: read-out: BRG1 HiBit Degradation Maximum (%); for DC50: read-out: BRMG1 HiBit Degradation IC50
# T1 construct: expressed in transfected cells
# Outline: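 HeLa cells stably expressing HiBit-BRG1 plus LgBit; compound exposure 24 h; Nano-Glo HiBiT lytic luminescence; % degradation vs DMSO (0%) and 2 μM standard BRM/BRG1 degrader (100%).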
# [2] = target: T2, HiBit-BRM fusion protein (Homo sapiens, UniProt P51531); assay: HiBiT-BRM cell-based degradation assay (Nano-Glo HiBiT Lytic Detection, 24 h); conditions: HeLa cell line expressing HiBiT-BRM; for DC50: read-out: BRM HiBit Degradation IC50
# T2 construct: expressed in transfected cells
# Outline: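 Percent BRM loss was derived from HiBiT luminescence relative to DMSO-treated cells and cells given 2 μM of a known BRM/BRG1 degrader. Treatment lasted 24 h in HiBiT-BRM HeLa cells, with a top final concentration of 30 μM.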
# T2 sequence (P51531 whole entry, the tested form may be a part): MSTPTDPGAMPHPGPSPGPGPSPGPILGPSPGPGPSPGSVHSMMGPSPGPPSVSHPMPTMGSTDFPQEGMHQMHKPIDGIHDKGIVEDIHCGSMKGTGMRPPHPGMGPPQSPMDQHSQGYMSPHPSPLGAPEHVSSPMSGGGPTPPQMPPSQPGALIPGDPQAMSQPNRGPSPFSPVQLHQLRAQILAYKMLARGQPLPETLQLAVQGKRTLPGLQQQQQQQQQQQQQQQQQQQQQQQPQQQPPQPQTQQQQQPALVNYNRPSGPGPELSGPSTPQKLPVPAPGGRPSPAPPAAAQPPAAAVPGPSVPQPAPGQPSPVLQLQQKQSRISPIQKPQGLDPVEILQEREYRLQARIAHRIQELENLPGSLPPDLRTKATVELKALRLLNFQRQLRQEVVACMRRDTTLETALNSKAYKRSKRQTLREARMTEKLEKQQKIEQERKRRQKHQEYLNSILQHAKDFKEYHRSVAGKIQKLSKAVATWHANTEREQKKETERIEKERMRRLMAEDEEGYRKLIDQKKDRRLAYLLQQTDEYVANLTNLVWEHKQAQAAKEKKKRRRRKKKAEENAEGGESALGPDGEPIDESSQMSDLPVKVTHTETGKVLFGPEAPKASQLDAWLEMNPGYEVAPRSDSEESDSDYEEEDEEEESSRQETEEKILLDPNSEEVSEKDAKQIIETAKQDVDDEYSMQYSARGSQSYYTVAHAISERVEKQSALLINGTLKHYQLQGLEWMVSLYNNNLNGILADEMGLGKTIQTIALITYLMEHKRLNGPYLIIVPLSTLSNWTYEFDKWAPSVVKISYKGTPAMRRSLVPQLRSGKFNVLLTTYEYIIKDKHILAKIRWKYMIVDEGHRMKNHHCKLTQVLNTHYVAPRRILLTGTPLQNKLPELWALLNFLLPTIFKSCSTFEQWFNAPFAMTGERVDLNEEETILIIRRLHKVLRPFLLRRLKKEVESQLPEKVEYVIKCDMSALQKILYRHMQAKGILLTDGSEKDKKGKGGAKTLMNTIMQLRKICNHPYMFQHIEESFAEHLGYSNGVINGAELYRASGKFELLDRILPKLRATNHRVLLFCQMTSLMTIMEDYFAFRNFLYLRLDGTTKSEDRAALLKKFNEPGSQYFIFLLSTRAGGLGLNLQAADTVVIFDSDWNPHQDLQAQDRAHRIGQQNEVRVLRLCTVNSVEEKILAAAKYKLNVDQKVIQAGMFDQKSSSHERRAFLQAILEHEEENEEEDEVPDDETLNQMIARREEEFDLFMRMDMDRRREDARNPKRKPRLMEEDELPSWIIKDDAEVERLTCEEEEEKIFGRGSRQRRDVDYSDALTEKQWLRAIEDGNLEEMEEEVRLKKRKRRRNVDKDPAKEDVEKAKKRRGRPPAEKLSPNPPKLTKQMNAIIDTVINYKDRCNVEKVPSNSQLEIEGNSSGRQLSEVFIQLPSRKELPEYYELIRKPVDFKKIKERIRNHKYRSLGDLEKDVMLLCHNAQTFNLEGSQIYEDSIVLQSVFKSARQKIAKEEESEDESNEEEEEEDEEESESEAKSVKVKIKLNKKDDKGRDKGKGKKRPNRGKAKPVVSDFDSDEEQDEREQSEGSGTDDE
# T1 sequence (P51532 whole entry, the tested form may be a part): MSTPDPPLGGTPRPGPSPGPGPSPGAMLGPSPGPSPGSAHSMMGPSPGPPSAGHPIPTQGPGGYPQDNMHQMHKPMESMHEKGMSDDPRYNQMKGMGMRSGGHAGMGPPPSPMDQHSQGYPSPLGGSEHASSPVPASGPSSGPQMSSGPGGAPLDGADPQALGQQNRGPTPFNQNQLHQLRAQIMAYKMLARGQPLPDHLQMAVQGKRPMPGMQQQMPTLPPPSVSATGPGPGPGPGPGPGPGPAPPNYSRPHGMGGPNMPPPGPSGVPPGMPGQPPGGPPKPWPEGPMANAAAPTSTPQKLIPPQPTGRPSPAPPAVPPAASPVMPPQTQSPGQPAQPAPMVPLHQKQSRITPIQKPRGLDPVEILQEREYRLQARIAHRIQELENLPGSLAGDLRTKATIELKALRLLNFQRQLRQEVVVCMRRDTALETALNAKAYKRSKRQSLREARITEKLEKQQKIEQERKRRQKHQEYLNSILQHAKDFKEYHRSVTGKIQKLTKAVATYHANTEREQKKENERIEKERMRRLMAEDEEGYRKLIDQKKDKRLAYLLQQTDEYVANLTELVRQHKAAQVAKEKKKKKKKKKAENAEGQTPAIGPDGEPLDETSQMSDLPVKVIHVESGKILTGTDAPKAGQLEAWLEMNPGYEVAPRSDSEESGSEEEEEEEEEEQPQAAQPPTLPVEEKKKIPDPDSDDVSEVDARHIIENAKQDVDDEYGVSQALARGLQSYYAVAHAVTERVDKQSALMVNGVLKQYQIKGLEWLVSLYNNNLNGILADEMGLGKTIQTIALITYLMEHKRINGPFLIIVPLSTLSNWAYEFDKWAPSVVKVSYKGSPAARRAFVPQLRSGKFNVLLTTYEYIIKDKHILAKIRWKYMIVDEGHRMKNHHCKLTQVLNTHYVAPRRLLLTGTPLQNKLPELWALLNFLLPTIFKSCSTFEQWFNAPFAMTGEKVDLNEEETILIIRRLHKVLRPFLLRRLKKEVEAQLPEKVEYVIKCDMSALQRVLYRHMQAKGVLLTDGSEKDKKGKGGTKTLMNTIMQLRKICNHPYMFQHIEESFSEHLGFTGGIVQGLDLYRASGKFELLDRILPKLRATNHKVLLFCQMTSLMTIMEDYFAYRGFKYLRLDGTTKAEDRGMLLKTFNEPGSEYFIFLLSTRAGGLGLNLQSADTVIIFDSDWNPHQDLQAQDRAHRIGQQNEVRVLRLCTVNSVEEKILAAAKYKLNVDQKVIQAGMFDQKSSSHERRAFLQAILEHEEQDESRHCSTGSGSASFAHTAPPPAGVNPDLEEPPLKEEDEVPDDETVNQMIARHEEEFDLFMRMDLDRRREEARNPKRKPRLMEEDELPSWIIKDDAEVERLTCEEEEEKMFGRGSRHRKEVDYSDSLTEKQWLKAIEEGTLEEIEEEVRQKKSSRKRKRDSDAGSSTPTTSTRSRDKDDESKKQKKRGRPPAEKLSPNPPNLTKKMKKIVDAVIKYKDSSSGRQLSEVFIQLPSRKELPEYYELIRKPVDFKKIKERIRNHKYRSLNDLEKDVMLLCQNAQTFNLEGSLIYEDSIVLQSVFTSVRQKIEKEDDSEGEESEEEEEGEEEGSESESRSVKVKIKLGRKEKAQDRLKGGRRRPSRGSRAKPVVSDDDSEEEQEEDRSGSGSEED
Dmax [1],DC50 [2],DC50 [1],SMILES,BRM HiBit Degradation Maximum (%) [2]
< 50%,> 10 nM,,"Cc1ncsc1-c1ccc([C@H](C)NC(=O)[C@@H]2C[C@@H](O)CN2C(=O)[C@@H](c2cc(N3CCC(C(=O)N4CCc5[nH]c6nnc(-c7ccccc7O)cc6c5C4)CC3)no2)C(C)C)cc1 (racemic) [Compound 187, (2S,4R)-4-hydroxy-1-((R)-2-(3-(4-(3-(2-hydroxyphenyl)-6,7,8,9-tetrahydro-5H-pyrido[3′,4′:4,5]pyrrolo[2,3-c]pyridazine-6-carbonyl)piperidin-1-yl)isoxazol-5-yl)-3-methylbutanoyl)-N-((S)-1-(4-(4-methylthiazol-5-yl)phenyl)ethyl)pyrrolidine-2-carboxamide]",A (“A” indicates maximum degradation ≥ 75%)
< 50%,,,"Cc1ncsc1-c1ccc(CNC(=O)[C@@H]2C[C@@H](O)CN2C(=O)[C@@H](NC(=O)CCCCCNC(=O)[C@H]2CCc3[nH]c4nnc(-c5ccccc5O)cc4c3C2)C(C)(C)C)cc1 (racemic) [Compound 189, (S)-N-(6-(((S)-1-((2S,4R)-4-hydroxy-2-((4-(4-methylthiazol-5-yl)benzyl)carbamoyl)pyrrolidin-1-yl)-3,3-dimethyl-1-oxobutan-2-yl)amino)-6-oxohexyl)-3-(2-hydroxyphenyl)-6,7,8,9-tetrahydro-5H-pyridazino[3,4-b]indole-6-carboxamide]",C (“C” indicates maximum degradation < 50%)
> 50%,> 10 nM,> 100 nM,"Cc1ncsc1-c1ccc([C@H](C)NC(=O)[C@@H]2C[C@@H](O)CN2C(=O)[C@@H](c2cc(N3CCC(CN4CCc5[nH]c6nnc(-c7ccccc7O)cc6c5C4)CC3)no2)C(C)C)cc1 (racemic) [Compound 193, (2S,4R)-4-hydroxy-1-((R)-2-(3-(4-((3-(2-hydroxyphenyl)-5,7,8,9-tetrahydro-6H-pyrido [3′,4′:4,5]pyrrolo[2,3-c]pyridazin-6-yl)methyl)piperidin-1-yl)isoxazol-5-yl)-3-methylbutanoyl)-N-((S)-1-(4-(4-methylthiazol-5-yl)phenyl)ethyl)pyrrolidine-2-carboxamide]",A (“A” indicates maximum degradation ≥ 75%)
< 50%,,,"Cc1ncsc1-c1ccc([C@H](C)NC(=O)[C@@H]2C[C@@H](O)CN2C(=O)[C@@H](c2cc(OCC(=O)N3CCc4[nH]c5nnc(-c6ccccc6O)cc5c4C3)no2)C(C)C)cc1 (racemic) [Compound 194, (2S,4R)-4-hydroxy-1-((R)-2-(3-(2-(3-(2-hydroxyphenyl)-5,7,8,9-tetrahydro-6H-pyrido[3′,4′:4,5]pyrrolo[2,3-c]pyridazin-6-yl)-2-oxoethoxy)isoxazol-5-yl)-3-methylbutanoyl)-N-((S)-1-(4-(4-methylthiazol-5-yl)phenyl)ethyl)pyrrolidine-2-carboxamide]",C (“C” indicates maximum degradation < 50%)
< 50%,> 100 nM,,"Cc1ncsc1-c1ccc(CNC(=O)[C@@H]2C[C@@H](O)CN2C(=O)[C@@H](NC(=O)CCCCCNC(=O)[C@@H]2CCc3[nH]c4nnc(-c5ccccc5O)cc4c3C2)C(C)(C)C)cc1 (racemic) [Compound 195, (R)-N-(6-(((S)-1-((2S,4R)-4-hydroxy-2-((4-(4-methylthiazol-5-yl)benzyl)carbamoyl)pyrrolidin-1-yl)-3,3-dimethyl-1-oxobutan-2-yl)amino)-6-oxohexyl)-3-(2-hydroxyphenyl)-6,7,8,9-tetrahydro-5H-pyridazino[3,4-b]indole-6-carboxamide]",B (“B” indicates maximum degradation ≥ 50%)
< 50%,> 10 nM,,"Cc1ncsc1-c1ccc([C@H](C)NC(=O)[C@@H]2C[C@@H](O)CN2C(=O)[C@@H](c2cc(N3CCN(Cc4cc5cc(-c6ccccc6O)nnc5[nH]4)CC3)no2)C(C)C)cc1 (racemic) [Compound 199, (2S,4R)-4-hydroxy-1-((R)-2-(3-(4-((3-(2-hydroxyphenyl)-7H-pyrrolo[2,3-c]pyridazin-6-yl)methyl)piperazin-1-yl)isoxazol-5-yl)-3-methylbutanoyl)-N-((S)-1-(4-(4-methylthiazol-5-yl)phenyl)ethyl)pyrrolidine-2-carboxamide]",A (“A” indicates maximum degradation ≥ 75%)
< 50%,,,"Cc1ncsc1-c1ccc([C@H](C)NC(=O)[C@@H]2C[C@@H](O)CN2C(=O)C(c2cc(N3CCC(C(=O)N4CCc5[nH]c6nnc(-c7ccccc7O)cc6c5C4)CC3)no2)C(C)C)cc1 (mixture of isomers) [Compound 205, (2S,4R)-4-hydroxy-1-((R)-2-(3-(4-(3-(2-hydroxyphenyl)-6,7,8,9-tetrahydro-5H-pyrido[3′,4′:4,5]pyrrolo[2,3-c]pyridazine-6-carbonyl)piperidin-1-yl)isoxazol-5-yl)-3-methylbutanoyl)-N-((S)-1-(4-(4-methylthiazol-5-yl)phenyl)ethyl)pyrrolidine-2-carboxamide]",C (“C” indicates maximum degradation < 50%)
< 50%,,,"Cc1ncsc1-c1ccc([C@H](C)NC(=O)[C@@H]2C[C@@H](O)CN2C(=O)[C@@H](c2cc(OCCN3CC(n4c(=O)[nH]c5nnc(-c6ccccc6O)cc54)C3)no2)C(C)C)cc1 (racemic) [Compound 206, (2S,4R)-4-hydroxy-1-[(2R)-2-[3-(2-{3-[3-(2-hydroxyphenyl)-6-oxo-7H-imidazo[4,5-c]pyridazin-5-yl]azetidin-1-yl}ethoxy)-1,2-oxazol-5-yl]-3-methylbutanoyl]-N-[(1S)-1-[4-(4-methyl-1,3-thiazol-5-yl)phenyl]ethyl]pyrrolidine-2-carboxamide]",C (“C” indicates maximum degradation < 50%)
< 50%,> 10 nM,,"Cc1ncsc1-c1ccc([C@H](C)NC(=O)[C@@H]2C[C@@H](O)CN2C(=O)[C@@H](c2cc(OCCN3CCN(Cc4cc5cc(-c6ccccc6O)nnc5[nH]4)CC3)no2)C(C)C)cc1 (racemic) [Compound 208, (2S,4R)-4-hydroxy-1-((R)-2-(3-(2-(4-((3-(2-hydroxyphenyl)-7H-pyrrolo[2,3-c]pyridazin-6-yl)methyl)piperazin-1-yl)ethoxy)isoxazol-5-yl)-3-methylbutanoyl)-N-((S)-1-(4-(4-methylthiazol-5-yl)phenyl)ethyl)pyrrolidine-2-carboxamide]",A (“A” indicates maximum degradation ≥ 75%)
< 50%,,,"Cc1ncsc1-c1ccc([C@H](C)NC(=O)[C@@H]2C[C@@H](O)CN2C(=O)[C@@H](c2cc(OCCN3C[C@@H]4[C@H](C3)[C@H]4c3c[nH]c4nnc(-c5ccccc5O)cc34)no2)C(C)C)cc1 (racemic) [Compound 210, (2S,4R)-4-hydroxy-1-((R)-2-(3-(2-((1R,5S,6S)-6-(3-(2-hydroxyphenyl)-7H-pyrrolo[2,3-c]pyridazin-5-yl)-3-azabicyclo[3.1.0]hexan-3-yl)ethoxy)isoxazol-5-yl)-3-methylbutanoyl)-N-((S)-1-(4-(4-methylthiazol-5-yl)phenyl)ethyl)pyrrolidine-2-carboxamide]",C (“C” indicates maximum degradation < 50%)
> 75%,> 10 nM,> 100 nM,"Cc1ncsc1-c1ccc([C@H](C)NC(=O)[C@@H]2C[C@@H](O)CN2C(=O)[C@@H](c2cc(OCCCN3CC4(CC(c5c[nH]c6nnc(-c7ccccc7O)cc56)C4)C3)no2)C(C)C)cc1 (racemic) [Compound 211, (2S,4R)-4-hydroxy-1-((R)-2-(3-(3-(6-(3-(2-hydroxyphenyl)-7H-pyrrolo[2,3-c]pyridazin-5-yl)-2-azaspiro[3.3]heptan-2-yl)propoxy)isoxazol-5-yl)-3-methylbutanoyl)-N-((S)-1-(4-(4-methylthiazol-5-yl)phenyl)ethyl)pyrrolidine-2-carboxamide]",A (“A” indicates maximum degradation ≥ 75%)
< 50%,> 100 nM,,"Cc1ncsc1-c1ccc([C@H](C)NC(=O)[C@@H]2C[C@@H](O)CN2C(=O)[C@@H](c2cc(OCCNCc3cc4cc(-c5ccccc5O)nnc4[nH]3)no2)C(C)C)cc1 (racemic) [Compound 212, (2S,4R)-4-hydroxy-1-((R)-2-(3-(2-(((3-(2-hydroxyphenyl)-7H-pyrrolo[2,3-c]pyridazin-6-yl)methyl)amino)ethoxy)isoxazol-5-yl)-3-methylbutanoyl)-N-((S)-1-(4-(4-methylthiazol-5-yl)phenyl)ethyl)pyrrolidine-2-carboxamide]",A (“A” indicates maximum degradation ≥ 75%)
> 75%,> 10 nM,> 100 nM,"Cc1ncsc1-c1ccc([C@H](C)NC(=O)[C@@H]2C[C@@H](O)CN2C(=O)[C@@H](c2cc(OCCNCC34CC(c5cc6cc(-c7ccccc7O)nnc6[nH]5)(C3)C4)no2)C(C)C)cc1 (racemic) [Compound 213, (2S,4R)-4-hydroxy-1-((R)-2-(3-(2-(((3-(3-(2-hydroxyphenyl)-7H-pyrrolo[2,3-c]pyridazin-6-yl)bicyclo[1.1.1]pentan-1-yl)methyl)amino)ethoxy)isoxazol-5-yl)-3-methylbutanoyl)-N-((S)-1-(4-(4-methylthiazol-5-yl)phenyl)ethyl)pyrrolidine-2-carboxamide]",A (“A” indicates maximum degradation ≥ 75%)
